US20210130308A1, “MODULATORS OF EUKARYOTIC INITIATION FACTOR 2” (Denali Therapeutics Inc., priority 2018, published 2021)
Read-outs that look alike come from different tables or passages of the source.

Test system: ATF4 translation (ISR pathway activation)
Test: ATF4 Nano Luciferase reporter integrated stress response (ISR) assay in H4 ATF4-NLuc (clone 17) cells
Format: cell-based, human
Text: Cellular stress leads to activation of the integrated stress response pathway through one of four eukaryotic initiation factor 2α kinases and halts global translation, while allowing for the translation of select transcripts like ATF4 (activating transcription factor 4) that are important for the response to cellular stress. During normal conditions, small open reading frames (ORFs) in the 5′ UTR of ATF4 occupy the ribosome and prevent translation of the coding sequence of ATF4. During stress conditions however, the ribosome scans past these upstream ORFs and preferentially begins translation at the coding sequence of ATF4. In this way, the translation, and thus protein level of ATF4 is a readout of ISR pathway activation. Thus, a fusion of the uORFs and the beginning of the coding sequence of ATF to a common cellular reporter like nano-luciferase allows for a sensitive and high-throughput readout of ISR pathway activity.
Compounds as provided herein were tested in the following assay. The ATF4 Nano Luciferase reporter was constructed by fusing the human full length 5′ untranslated region (5′-UTR) and a small portion of the coding sequence of the ATF4 gene upstream of the Nano Luciferase (NLuc) coding sequence lacking it's start codon. Specifically, nucleotides +1 through +364 (relative to the transcriptional start site) of ATF4 transcript variant 2 (NCBI NM_182810.2) flanked 5′ by EcoRI and 3′ by BamHI restriction enzyme sites were synthesized and cloned into the EcoRI/BamHI cloning sites of pLVX-EF1a-IRES-Puro lentivirus vector (Clontech). […]. H4 cells were selected with […] Puromycin, and clonal cell lines generated by limiting dilution. We utilized this cell line to generate an integrated stress response (ISR) assay to evaluate the activity of ISR pathway inhibitors via luminescence readout. The H4 ATF4-NLuc (clone 17) cell line is plated at a density of […] in 96-well or 384-well respectively in DMEM+10% fetal bovine serum. 24-hours later test compounds diluted in dimethyl sulfoxide (DMSO) are added for 30 minutes at 37 degree Celsius, followed by ISR pathway activation with 50 um sodium arsenite aqueous solution for 6 additional hours. Nano Glo luciferase reagent (N1150, Promega) is added according to manufacturer instructions and the luminescence signal (corresponding to the level of ATF4 translation and thus ISR pathway activation) is read with a standard plate reader with luminescence detection capabilities.
In the table below, activity of the tested compounds is provided in Table 3 as follows: +++=IC50<1 μM; ++=IC50 1-10 μM; +=IC50>10 μM.

[1] = Homo sapiens, 0.5 h, H4 ATF4-NLuc (clone 17) cells, compounds 30 minutes at 37 degree Celsius, then 50 um sodium arsenite for 6 additional hours, luminescence readout, read-out: IC50

SMILES | IC50 [1] [nM] | also measured
CCOC1CC(OCC(=O)NC23CC(NC(=O)c4ccc5cc(C(F)(F)F)ccc5n4)(C2)C3)C1 (stereo not drawn) [Example 71, N-(3-(2-(3-cis-ethoxycyclobutoxy)acetamido)bicyclo[1.1.1]pentan-1-yl)-6-(trifluoromethyl)quinoline-2-carboxamide] | < 1000 | 
O=C(COc1ccc(Cl)c(F)c1)NC1CN(C(=O)COC2CC(OC(F)(F)F)C2)C1 (stereo not drawn) [Example 24, 2-(4-chloro-3-fluoro-phenoxy)-N-[1-[2-[3-cis-(trifluoromethoxy)cyclobutoxy]acetyl]azetidin-3-yl]acetamide] | 1000 to 10000 | 
O=C(CO[C@H]1C[C@@H](OC(F)(F)F)C1)NC1CN(C(=O)COC2CC(OC(F)(F)F)C2)C1 (stereo partly drawn) [Example 25, 2-[3-cis (trifluoromethoxy)cyclobutoxy]-N-[1-[2-[3-cis-(trifluoromethoxy)cyclobutoxy]acetyl]azetidin-3-yl]acetamide] | 1000 to 10000 | 
CC1CC(OCC(=O)NC23CC(NC(=O)COc4ccc(Cl)cc4)(C2)C3)C1 (stereo not drawn) [Example 36, 2-(4-chlorophenoxy)-N-[3-[[2-(3-cis-methylcyclobutoxy)acetyl]amino]-1-bicyclo[1.1.1]pentanyl]acetamide] | < 1000 | 
CC1(OCC(=O)NC23CC(NC(=O)COc4ccc(Cl)cc4)(C2)C3)CC(C#N)C1 (centres unmarked) [Example 8, 2-(4-chlorophenoxy)-N-(3-(2-(3-cyano-1-methylcyclobutoxy)acetamido)bicyclo[1.1.1]pentan-1-yl)acetamide] | 1000 to 10000 | 
O=C(COC1CC(OC(F)(F)F)C1)NC12CC(NC(=O)COC3CC(OC(F)(F)F)C3)(C1)C2 (stereo not drawn) [Example 39, 2-[3-cis-(trifluoromethoxy)cyclobutoxy]-N-[3-[[2-[3-cis-(trifluoromethoxy)cyclobutoxy]acetyl]amino]-1-bicyclo[1.1.1]pentanyl]acetamide] | < 1000 | 
N#CC1CC(OCC(=O)N2CC3(CC(NC(=O)COc4ccc(Cl)c(F)c4)C3)C2)C1 (centres unmarked) [Example 20, 2-(4-chloro-3-fluoro-phenoxy)-N-[2-[2-(3-cyanocyclobutoxy)acetyl]-2-azaspiro[3.3]heptan-6-yl]acetamide] | < 1000 | 
O=C(COc1ccc(Cl)c(F)c1)N[C@@H]1C[C@@H]2CN(C(=O)COC3CCC3)C[C@@H]2C1 [Example 41, 2-(4-chloro-3-fluorophenoxy)-N-((3aR,5r,6aS)-2-(2-cyclobutoxyacetyl)octahydrocyclopenta[c]pyrrol-5-yl)acetamide] | < 1000 | 
O=C(COc1ccc(Cl)c(F)c1)NC12CC(NC(=O)CO[C@H]3C[C@@H](OC(F)(F)F)C3)(C1)C2 [Example 37, 2-(4-chloro-3-fluoro-phenoxy)-N-[3-[[2-[3-cis-(trifluoromethoxy)cyclobutoxy]acetyl]amino]-1-bicyclo[1.1.1]pentanyl]acetamide] | < 1000 | 
O=C(COC1CC(OC(F)(F)F)C1)NC12CC(NC(=O)[C@@H]3CCc4cc(C(F)(F)F)ccc4O3)(C1)C2 (single isomer, unassigned) [Example 72 (second eluting isomer), N-(3-(2-(3-cis-(trifluoromethoxy)cyclobutoxy)acetamido)bicyclo[1.1.1]pentan-1-yl)-6-(trifluoromethyl)chroman-2-carboxamide] | < 1000 | 
O=C(COc1ccc(Cl)cc1)NC12CC(NC(=O)COC3CCC3)(C1)C2 [Example 1, 2-(4-chlorophenoxy)-N-(3-(2-cyclobutoxyacetamido)bicyclo[1.1.1]pentan-1-yl)acetamide] |  | IC50 (Homo sapiens, 0.5 h): < 1000 nM
O=C(COC1CC(F)C1)NC12CC(NC(=O)c3ccc4cc(C(F)(F)F)ccc4n3)(C1)C2 (stereo not drawn) [Example 54, N-[1-[[2-(3-cis-fluorocyclobutoxy)acetyl]amino]-3-bicyclo[1.1.1]pentanyl]-6-(trifluoromethyl)quinoline-2-carboxamide] |  | IC50 (H4 ATF4-NLuc (clone 17) cells, compounds 30 minutes at 37 degree Celsius, then 50 um sodium arsenite for 6 additional hours, luminescence readout, read-out: IC50): < 1000 nM
O=C(COc1ccc(Cl)c(F)c1)NC12CC(NC(=O)COC3CCC3)(C1)C2 [Example 10, 2-(4-chloro-3-fluorophenoxy)-N-(3-(2-cyclobutoxyacetamido)bicyclo[1.1.1]pentan-1-yl)acetamide] | < 1000 | 
O=C(COc1ccc(Cl)cc1)NC1CC2CN(c3cnn([C@H]4C[C@@H](OC(F)(F)F)C4)c3)CC2C1 (stereo partly drawn) [Example 61, 2-(4-chlorophenoxy)-N-(2-(1-(3-cis-(trifluoromethoxy)cyclobutyl)-1H-pyrazol-4-yl)octahydrocyclopenta[c]pyrrol-5-yl)acetamide] |  | IC50 (Homo sapiens, 0.5 h): > 10000 nM
N#CC1CC(OCC(=O)N2CCC3(CC2)CC(NC(=O)COc2ccc(Cl)c(F)c2)C3)C1 (centres unmarked) [Example 14, 2-(4-chloro-3-fluoro-phenoxy)-N-[7-[2-(3-cyanocyclobutoxy)acetyl]-7-azaspiro[3.5]nonan-2-yl]acetamide] | < 1000 | 
O=C(COC1CC(OC(F)(F)F)C1)NC12CC(NC(=O)c3ccc4cc(Cl)ccc4n3)(C1)C2 (stereo not drawn) [Example 64, 6-chloro-N-[1-[[2-[3-cis-(trifluoromethoxy)cyclobutoxy]acetyl]amino]-3-bicyclo[1.1.1]pentanyl]quinoline-2-carboxamide] | < 1000 | 
O=C(COC1CC(OC(F)(F)F)C1)NC12CC(NC(=O)c3ccc4cc(F)c(F)cc4n3)(C1)C2 (stereo not drawn) [Example 69, 6,7-difluoro-N-(3-(2-(3-cis-(trifluoromethoxy)cyclobutoxy)acetamido)bicyclo[1.1.1]pentan-1-yl)quinoline-2-carboxamide] | < 1000 | 
O=C(COc1ccc(Cl)cc1)NC12CC(NC(=O)COC3CC(F)(F)C3)(C1)C2 [Example 2, 2-(4-chlorophenoxy)-N-(3-(2-(3,3-difluorocyclobutoxy)acetamido)bicyclo[1.1.1]pentan-1-yl)acetamide] | < 1000 | 
O=C(COc1ccc(Cl)c(F)c1)NC1CCN(c2ccnc(C3CC(OC(F)(F)F)C3)n2)CC1 [58 (cis isomer), 2-(4-chloro-3-fluorophenoxy)-N-(1-(2-(3-cis-(trifluoromethoxy)cyclobutyl)pyrimidin-4-yl)piperidin-4-yl)acetamide] | < 1000 | 
N#CC1CC(OCC(=O)NC23CC(NC(=O)COc4ccc(Cl)cc4)(C2)C3)C1 (centres unmarked) [Example 6, 2-(4-chlorophenoxy)-N-(3-(2-(3-cyanocyclobutoxy)acetamido)bicyclo[1.1.1]pentan-1-yl)acetamide] | < 1000 | 
O=C(COc1ccc(Cl)c(F)c1)NC12CC(NC(=O)COC3CC(OC(F)F)C3)(C1)C2 (stereo not drawn) [Example 34, 2-(4-chloro-3-fluoro-phenoxy)-N-[3-[[2-[3-cis-(difluoromethoxy)cyclobutoxy]acetyl]amino]-1-bicyclo[1.1.1]pentanyl]acetamide] | < 1000 | 
O=C(COc1ccc(Cl)c(F)c1)NC1CC2(CCN(C(=O)COC3CCC3)CC2)C1 [Example 15, 2-(4-chloro-3-fluoro-phenoxy)-N-[7-[2-(cyclobutoxy)acetyl]-7-azaspiro[3.5]nonan-2-yl]acetamide] | < 1000 | 
O=C(COC1CC(OC(F)(F)F)C1)NC12CC(NC(=O)c3nc4cc(Cl)ccc4s3)(C1)C2 (stereo not drawn) [Example 52, 5-chloro-N-[1-[[2-[3-cis-(trifluoromethoxy)cyclobutoxy]acetyl]amino]-3-bicyclo[1.1.1]pentanyl]-1,3-benzothiazole-2-carboxamide] | < 1000 | 
